Laboratory results published in patent US10039779B2, “Combination formulation of two antiviral compounds” (priority 2013, dated 2018).
≈ marks a conversion by molar mass, not a printed value.

Experiments:
Format in all cases: physicochemical
[1] = pH-solubility profile and solubility in simulated intestinal media; conditions: for solubility at 48 h: thermodynamic from solid
Description: Excess solid ledipasvir was added to a range of pH-adjusted aqueous solutions (titrated with HCl or NaOH) and stirred for 48 hours at room temperature. The suspensions were then filtered through regenerated cellulose syringe filters. The pH value of the supernatant was measured, and the supernatant was diluted as appropriate with 50:50 H2O+0.1% TFA:ACN and assayed for ledipasvir content by the HPLC-UV method.
Solubility of ledipasvir amorphous free base was assessed in three types of simulated intestinal fluids at pH 6.5 or pH 5.0; and simulated intestinal bile salt and lecithin mixture (SIBLM), pH 6.4. Excess solid ledipasvir was added to the respective SIFs and stirred for 48 hours at room temperature. The resulting suspensions were then filtered through regenerated cellulose syringe filters. The supernatant was diluted as appropriate with 50:50 H2O+0.1% TFA:ACN and assayed for ledipasvir content by the HPLC-UV method.

[2] = Excipient and organic solvent solubility; conditions: thermodynamic from solid
Description: Solubility of ledipasvir amorphous free base and ledipasvir crystalline D-tartrate was measured in a wide range of pharmaceutically acceptable solvents, including cosolvents, surfactants, fatty acids, triglycerides, or blends thereof. Material was weighed into scintillation vials and stirred for up to 48 hours at room temperature. In many cases, solubility was higher than the amount of solid used in the sample, thus many results are reported as ‘greater than’ or ‘greater than or equal to’ if the concentration was not quantitatively determined by HPLC-UV.

[3] = Aqueous solubility with 0.1% w/w surfactants and polymers; dissolution behavior of forms; conditions: for solubility: thermodynamic from solid
Description: Excess solid was added to aqueous buffered solutions; samples were withdrawn at predetermined intervals (2, 5, 8, 10, 15, 20, 30, 45, 60 minutes, and 24 hours), filtered through regenerated cellulose filters, and diluted for concentration measurement by the HPLC-UV method.

## COC(=O)N[C@H](C(=O)N1CC2(CC2)C[C@H]1c1ncc(-c2ccc3c(c2)C(F)(F)c2cc(-c4ccc5nc([C@@H]6[C@H]7CC[C@H](C7)N6C(=O)[C@@H](NC(=O)OC)C(C)C)[nH]c5c4)ccc2-3)[nH]1)C(C)C [Ledipasvir amorphous free base]
[1]; Aqueous, pH 1.6 (HCl), room temperature
  solubility: 6855 µg/mL (≈ 7710 µM)
[1]; Aqueous, pH 2.3 (HCl), room temperature
  solubility: 1096 µg/mL (≈ 1230 µM)
[1]; FaSSIF, pH 6.5, fassif, FaSSIF pH = 6.5, room temperature
  solubility at 48 h: 25 µg/mL (≈ 28.1 µM)
[1]; FeSSIF, pH 5, fessif, FeSSIF pH = 5.0, room temperature
  solubility at 48 h: 230 µg/mL (≈ 259 µM)
[1]; SIBLM (simulated intestinal bile salt and lecithin mixture), pH 6.4, fassgf or other biorelevant, SIBLM pH = 6.4, room temperature
  solubility at 48 h: 232 µg/mL
[1]; aqueous, neutral form (pH>5), room temperature
  intrinsic solubility (S0): approximately 0.04 μg/mL
[1]; pH-adjusted aqueous solution (HCl), pH 1.6, aqueous buffer, Aqueous, pH 1.6 (HCl), room temperature
  solubility at 48 h: ~7000 µg/mL (≈ 7870 µM)
[1]; pH-adjusted aqueous solution (HCl), pH 2.3, aqueous buffer, Aqueous, pH 2.3 (HCl), room temperature
  solubility at 48 h: 1000 µg/mL (≈ 1120 µM)
[1]; pH-adjusted aqueous solution, pH 3.1, aqueous buffer, Aqueous, pH 3.1 (HCl), room temperature
  solubility at 48 h: 13.2 µg/mL (≈ 14.8 µM)
[1]; pH-adjusted aqueous solution, pH 4.1, aqueous buffer, Aqueous, pH 4.1 (HCl), room temperature
  solubility at 48 h: 0.11 µg/mL (≈ 0.124 µM)
[1]; pH-adjusted aqueous solution, pH 5.5, aqueous buffer, Aqueous, pH 5.5 (HCl), room temperature
  solubility at 48 h: 0.03 µg/mL (≈ 0.0337 µM)
[1]; pH-adjusted aqueous solution, pH 6.2, water, Aqueous, pH 6.2 (unaltered), room temperature
  solubility at 48 h: 0.03 µg/mL (≈ 0.0337 µM)
[1]; pH-adjusted aqueous solution, pH 7.2, aqueous buffer, Aqueous, pH 7.2 (NaOH), room temperature
  solubility at 48 h: 0.01 µg/mL (≈ 0.0112 µM)
[1]; room temperature
  increase of solubility in SIBLM over FaSSIF: approximately 10 fold
[2]; oil or lipid
  solubility: > 500000 µg/mL
[2]; pH 2.5, aqueous with cosolvent or surfactant or cyclodextrin
  solubility: 25000 µg/mL (≈ 28100 µM)
[3]; aqueous buffered solutions
  dissolution behavior relative to other ledipasvir forms: faster than that of the crystalline free base and acetone solvate forms
[3]; aqueous citrate buffer with excipient, pH 2, aqueous with cosolvent or surfactant or cyclodextrin, 0.1% w/w PVP (povidone), pH 2
  solubility: 5470 µg/mL (≈ 6150 µM)
[3]; aqueous citrate buffer with excipient, pH 2, aqueous with cosolvent or surfactant or cyclodextrin, 0.1% w/w PVP/VA (copovidone), pH 2
  solubility: 6730 µg/mL (≈ 7570 µM)
[3]; aqueous citrate buffer with excipient, pH 2, aqueous with cosolvent or surfactant or cyclodextrin, 0.1% w/w Sodium lauryl sulfate, pH 2
  solubility: 50 µg/mL (≈ 56.2 µM)
[3]; aqueous citrate buffer with excipient, pH 5, aqueous with cosolvent or surfactant or cyclodextrin, 0.1% w/w PVP (povidone), pH 5
  solubility: 0.4 µg/mL (≈ 0.45 µM)
[3]; aqueous citrate buffer with excipient, pH 5, aqueous with cosolvent or surfactant or cyclodextrin, 0.1% w/w PVP/VA (copovidone), pH 5
  solubility: 1 µg/mL (≈ 1.12 µM)
[3]; aqueous citrate buffer with excipient, pH 5, aqueous with cosolvent or surfactant or cyclodextrin, 0.1% w/w Sodium lauryl sulfate, pH 5
  solubility: 243 µg/mL (≈ 273 µM)
[3]; aqueous citrate buffer, no excipient, pH 2, aqueous buffer, pH 2, room temperature
  solubility: 4940 µg/mL (≈ 5560 µM)
[3]; aqueous citrate buffer, no excipient, pH 5, aqueous buffer, pH 5, room temperature
  solubility: 0.1 µg/mL (≈ 0.112 µM)
[3]; pH 2, aqueous with cosolvent or surfactant or cyclodextrin, 0.1% w/w Cremaphor EL, pH 2
  solubility: 9110 µg/mL (≈ 10200 µM)
[3]; pH 2, aqueous with cosolvent or surfactant or cyclodextrin, 0.1% w/w HPC (hydroxypropylcellulose), pH 2
  solubility: 4670 µg/mL (≈ 5250 µM)
[3]; pH 2, aqueous with cosolvent or surfactant or cyclodextrin, 0.1% w/w HPMC (hydroxymethylcellulose), pH 2
  solubility: 5270 µg/mL (≈ 5930 µM)
[3]; pH 2, aqueous with cosolvent or surfactant or cyclodextrin, 0.1% w/w Labrasol, pH 2
  solubility: 7440 µg/mL (≈ 8370 µM)
[3]; pH 2, aqueous with cosolvent or surfactant or cyclodextrin, 0.1% w/w Poloxamer 188, pH 2
  solubility: 7190 µg/mL (≈ 8090 µM)
[3]; pH 2, aqueous with cosolvent or surfactant or cyclodextrin, 0.1% w/w Polysorbate 80, pH 2
  solubility: 9270 µg/mL (≈ 10400 µM)
[3]; pH 5, aqueous with cosolvent or surfactant or cyclodextrin, 0.1% w/w Cremaphor EL, pH 5
  solubility: 69.9 µg/mL (≈ 78.6 µM)
[3]; pH 5, aqueous with cosolvent or surfactant or cyclodextrin, 0.1% w/w HPC (hydroxypropylcellulose), pH 5
  solubility: 0.1 µg/mL (≈ 0.112 µM)
[3]; pH 5, aqueous with cosolvent or surfactant or cyclodextrin, 0.1% w/w HPMC (hydroxymethylcellulose), pH 5
  solubility: 0.3 µg/mL (≈ 0.337 µM)
[3]; pH 5, aqueous with cosolvent or surfactant or cyclodextrin, 0.1% w/w Poloxamer 188, pH 5
  solubility: 0.5 µg/mL (≈ 0.562 µM)
[3]; pH 5, aqueous with cosolvent or surfactant or cyclodextrin, 0.1% w/w Polysorbate 80, pH 5
  solubility: 62.4 µg/mL (≈ 70.2 µM)
